Data from ChEMBL document CHEMBL1687809, “Novel apramycin resistance gene apmA in bovine and porcine methicillin-resistant Staphylococcus aureus ST398 isolates” (2011).
In brackets after ≈: the same amount, converted by molar mass.

Experiments:
Format in all cases: functional
Staphylococcus aureus [1] = assay: Antimicrobial activity against Staphylococcus aureus RN4220 by CLSI M31-A3 method
Staphylococcus aureus [2] = assay: Antimicrobial activity against methicillin-resistant Staphylococcus aureus ST398 isolate 11 containing apmA, erm(B), tet(L), tet(M), tet(K), dfrK, aadD, mecA, blaZ resistance genes by CLSI M31-A3 method
Staphylococcus aureus [3] = assay: Antimicrobial activity against Staphylococcus aureus RN4220 carrying pAFS11-apmA, erm(B), tet(L), dfrK, aadD resistance genes by CLSI M31-A3 method

Row | Compound | MIC (Staphylococcus aureus [1]) [µg/mL] | MIC (Staphylococcus aureus [2]) [µg/mL] | MIC (Staphylococcus aureus [3]) [µg/mL]
1 | NC[C@H]1O[C@H](O[C@H]2[C@H](O)[C@@H](O[C@H]3O[C@H](CO)[C@@H](O)[C@H](N)[C@H]3O)[C@H](N)C[C@@H]2N)[C@H](O)[C@@H](O)[C@@H]1O [KANAMYCIN] | 4 (≈ 8.26 µM) | ≥ 128 | 64 (≈ 132 µM)
2 | GENTAMICIN | 0.25 | 8 | 8
3 | CC[C@H]1OC(=O)[C@H](C)[C@@H](O[C@H]2C[C@@](C)(OC)[C@@H](O)[C@H](C)O2)[C@H](C)[C@@H](O[C@@H]2O[C@H](C)C[C@H](N(C)C)[C@H]2O)[C@](C)(O)C[C@@H](C)C(=O)[C@H](C)[C@@H](O)[C@]1(C)O [ERYTHROMYCIN] | 0.12 (≈ 0.164 µM) | ≥ 64 | ≥ 64
4 | CCC[C@@H]1C[C@@H](C(=O)N[C@@H]([C@H]2O[C@H](SC)[C@H](O)[C@@H](O)[C@H]2O)[C@H](C)Cl)N(C)C1 [CLINDAMYCIN] | ≤ 0.12 | ≥ 128 | ≥ 128
5 | Cc1onc(-c2ccccc2)c1C(=O)N[C@@H]1C(=O)N2[C@@H]1SC(C)(C)[C@@H]2C(=O)O [OXACILLIN] | 0.12 (≈ 0.299 µM) | 16 (≈ 39.9 µM) | 0.12 (≈ 0.299 µM)
6 | CN(C)[C@@H]1C(O)=C(C(N)=O)C(=O)[C@@]2(O)C(O)=C3C(=O)c4c(O)cccc4[C@@](C)(O)[C@H]3C[C@@H]12 [TETRACYCLINE] | 0.12 (≈ 0.27 µM) | 64 (≈ 144 µM) | 32 (≈ 72 µM)
7 | COc1cc(Cc2cnc(N)nc2N)cc(OC)c1OC [TRIMETHOPRIM] | 0.5 (≈ 1.72 µM) | ≥ 256 | ≥ 256
8 | CN[C@@H]1[C@@H](O[C@H]2O[C@H](CO)[C@@H](N)[C@H](O)[C@H]2O)OC2C[C@@H](N)[C@@H](O[C@H]3[C@H](O)[C@@H](O)[C@H](N)C[C@@H]3N)OC2[C@@H]1O (some centres not stated) [APRAMYCIN] | 1 (≈ 1.85 µM) | ≥ 128 | ≥ 128
9 | NC[C@@H]1O[C@H](O[C@H]2[C@@H](O)[C@H](O[C@@H]3[C@@H](O)[C@H](N)C[C@H](N)[C@H]3O[C@H]3O[C@H](CN)[C@@H](O)[C@H](O)[C@H]3N)O[C@@H]2CO)[C@H](N)[C@@H](O)[C@@H]1O [FRAMYCETIN] | ≤ 1 | 128 (≈ 208 µM) | 32 (≈ 52.1 µM)
